Results from patent US8415469B2, “Compounds and methods for kinase modulation, and indications therefor” (Plexxikon Inc., priority 2005, dated 2013).

Experiments:
Format in all cases: biochemical
Kit = molecular target: T1, Kit (Homo sapiens, UniProt P10721); assay: AlphaScreen kinase assay, Kit; conditions: read-out: IC50, activity toward kinase Kit
T1 construct: P1332.N6 BI PTP KIT M552-K948-X COD; His6 (N); made in house; host or cells: E. coli (PTP1B co-expressed)

Kdr = molecular target: T2, Kdr (Homo sapiens, UniProt P35968); assay: Z'-Lyte FRET kinase assay (Invitrogen), Kdr; conditions: read-out: IC50, activity toward kinase Kdr
T2 construct: purchased Invitrogen (assay run by Invitrogen)

Ret = molecular target: T3, Ret (Homo sapiens, UniProt P07949); assay: AlphaScreen kinase assay, Ret; conditions: read-out: IC50, activity toward kinase Ret
T3 construct: P1378.pET-SF BI-PTP RET H661-R1012 HIS; made in house
T3 sequence (P07949 with tags, fused parts or gaps): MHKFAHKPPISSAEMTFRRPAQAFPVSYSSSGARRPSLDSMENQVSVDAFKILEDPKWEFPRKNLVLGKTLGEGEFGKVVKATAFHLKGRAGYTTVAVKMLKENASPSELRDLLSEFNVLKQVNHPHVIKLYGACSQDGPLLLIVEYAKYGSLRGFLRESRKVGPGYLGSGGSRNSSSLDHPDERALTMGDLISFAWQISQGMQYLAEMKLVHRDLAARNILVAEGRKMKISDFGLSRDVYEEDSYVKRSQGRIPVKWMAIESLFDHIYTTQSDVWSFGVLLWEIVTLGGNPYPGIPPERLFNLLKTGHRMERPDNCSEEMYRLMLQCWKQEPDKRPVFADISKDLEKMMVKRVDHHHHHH

Fms = molecular target: T4, Fms (Homo sapiens, UniProt P07333); assay: AlphaScreen kinase assay, Fms; conditions: read-out: IC50, activity toward kinase Fms
T4 construct: purchased Upstate Biotechnology

Yes = molecular target: T5, Yes (Homo sapiens, UniProt P07947); assay: Z'-Lyte FRET kinase assay (Invitrogen), Yes; conditions: read-out: IC50, activity toward kinase Yes
T5 construct: purchased Invitrogen (Carlsbad, Calif.), screening service
Procedure, shortened: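 Serially diluted compound (final 1% DMSO) incubated 1 h at room temperature with kinase, 2 μM FRET peptide and 10 μM ATP in pH 7.5 HEPES buffer. Site-specific protease then cleaves unphosphorylated peptide (1 h); inhibition read as increased coumarin-to-fluorescein emission ratio.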

FGFR1 = molecular target: T6, FGFR1 (Homo sapiens, UniProt P11362, C488A/C584S); assay: AlphaScreen kinase assay, FGFR1; conditions: read-out: IC50, activity toward kinase FGFR
T6 construct: P1351.pET N6 BI-PTP FGFR A458-E765-X C488A, C584S; made in house; host or cells: E. coli (PTP1B co-expressed)

B-Raf V600E = molecular target: T7, B-Raf V600E (Homo sapiens, UniProt P15056, V600E); assay: AlphaScreen kinase assay, B-Raf V600E; conditions: read-out: IC50, activity toward kinase B-Raf V600E
T7 construct: P4254. pFastBacBD-CDC37 BRAF D437-K722-X, V600E; His6 with pFastBac HT leader (TEV site) (N); made in house; host or cells: Sf9 (baculovirus; chaperone CDC37 co-expressed)
T7 sequence (P15056 with tags, fused parts or gaps V600E): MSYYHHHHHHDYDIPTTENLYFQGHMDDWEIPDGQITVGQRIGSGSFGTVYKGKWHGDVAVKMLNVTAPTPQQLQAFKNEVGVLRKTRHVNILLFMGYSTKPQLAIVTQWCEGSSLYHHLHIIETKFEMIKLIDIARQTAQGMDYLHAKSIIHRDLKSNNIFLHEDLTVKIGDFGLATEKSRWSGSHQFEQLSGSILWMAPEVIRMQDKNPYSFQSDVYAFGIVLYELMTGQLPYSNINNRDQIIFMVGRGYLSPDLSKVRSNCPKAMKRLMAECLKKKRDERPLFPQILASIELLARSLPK

T5 sequence (P07947 whole entry): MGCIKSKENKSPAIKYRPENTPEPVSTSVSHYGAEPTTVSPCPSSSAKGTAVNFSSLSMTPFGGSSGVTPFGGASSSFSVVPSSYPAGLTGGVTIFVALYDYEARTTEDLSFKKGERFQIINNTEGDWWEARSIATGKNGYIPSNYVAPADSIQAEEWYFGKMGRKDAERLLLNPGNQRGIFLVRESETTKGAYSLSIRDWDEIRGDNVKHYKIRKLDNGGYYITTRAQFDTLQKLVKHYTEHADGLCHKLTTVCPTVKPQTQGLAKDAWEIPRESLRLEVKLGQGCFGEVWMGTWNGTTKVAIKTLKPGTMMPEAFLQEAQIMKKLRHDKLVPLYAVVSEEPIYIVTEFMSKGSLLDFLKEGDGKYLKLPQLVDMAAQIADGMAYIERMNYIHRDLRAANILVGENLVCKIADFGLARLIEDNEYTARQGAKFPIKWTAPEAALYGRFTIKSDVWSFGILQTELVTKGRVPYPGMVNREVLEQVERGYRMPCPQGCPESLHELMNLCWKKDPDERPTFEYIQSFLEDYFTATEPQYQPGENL
T4 sequence (P07333 20-972): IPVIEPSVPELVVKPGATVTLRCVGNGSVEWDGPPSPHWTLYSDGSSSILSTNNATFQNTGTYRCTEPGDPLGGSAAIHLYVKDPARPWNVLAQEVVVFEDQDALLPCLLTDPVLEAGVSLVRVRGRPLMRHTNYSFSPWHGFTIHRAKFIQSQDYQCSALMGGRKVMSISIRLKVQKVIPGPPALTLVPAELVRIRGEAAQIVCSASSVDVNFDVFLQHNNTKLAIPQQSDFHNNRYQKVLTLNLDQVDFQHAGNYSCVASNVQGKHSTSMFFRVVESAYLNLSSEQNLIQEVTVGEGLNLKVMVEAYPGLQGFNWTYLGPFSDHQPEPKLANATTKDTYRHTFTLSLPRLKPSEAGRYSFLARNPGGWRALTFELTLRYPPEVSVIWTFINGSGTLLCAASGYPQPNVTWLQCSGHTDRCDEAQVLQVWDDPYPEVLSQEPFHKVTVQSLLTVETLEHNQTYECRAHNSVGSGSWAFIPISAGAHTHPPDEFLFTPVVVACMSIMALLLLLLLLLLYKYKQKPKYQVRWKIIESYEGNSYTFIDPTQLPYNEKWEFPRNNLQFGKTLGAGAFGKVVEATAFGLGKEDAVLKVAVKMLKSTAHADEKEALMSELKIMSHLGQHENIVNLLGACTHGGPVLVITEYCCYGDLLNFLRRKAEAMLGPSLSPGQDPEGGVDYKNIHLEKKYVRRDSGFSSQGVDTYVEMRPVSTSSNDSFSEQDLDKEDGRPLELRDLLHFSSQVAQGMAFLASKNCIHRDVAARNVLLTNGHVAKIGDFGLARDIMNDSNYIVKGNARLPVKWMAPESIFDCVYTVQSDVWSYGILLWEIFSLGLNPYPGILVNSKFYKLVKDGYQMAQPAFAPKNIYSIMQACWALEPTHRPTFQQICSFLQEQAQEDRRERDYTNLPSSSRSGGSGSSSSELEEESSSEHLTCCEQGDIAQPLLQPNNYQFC
T2 sequence (P35968 20-1356): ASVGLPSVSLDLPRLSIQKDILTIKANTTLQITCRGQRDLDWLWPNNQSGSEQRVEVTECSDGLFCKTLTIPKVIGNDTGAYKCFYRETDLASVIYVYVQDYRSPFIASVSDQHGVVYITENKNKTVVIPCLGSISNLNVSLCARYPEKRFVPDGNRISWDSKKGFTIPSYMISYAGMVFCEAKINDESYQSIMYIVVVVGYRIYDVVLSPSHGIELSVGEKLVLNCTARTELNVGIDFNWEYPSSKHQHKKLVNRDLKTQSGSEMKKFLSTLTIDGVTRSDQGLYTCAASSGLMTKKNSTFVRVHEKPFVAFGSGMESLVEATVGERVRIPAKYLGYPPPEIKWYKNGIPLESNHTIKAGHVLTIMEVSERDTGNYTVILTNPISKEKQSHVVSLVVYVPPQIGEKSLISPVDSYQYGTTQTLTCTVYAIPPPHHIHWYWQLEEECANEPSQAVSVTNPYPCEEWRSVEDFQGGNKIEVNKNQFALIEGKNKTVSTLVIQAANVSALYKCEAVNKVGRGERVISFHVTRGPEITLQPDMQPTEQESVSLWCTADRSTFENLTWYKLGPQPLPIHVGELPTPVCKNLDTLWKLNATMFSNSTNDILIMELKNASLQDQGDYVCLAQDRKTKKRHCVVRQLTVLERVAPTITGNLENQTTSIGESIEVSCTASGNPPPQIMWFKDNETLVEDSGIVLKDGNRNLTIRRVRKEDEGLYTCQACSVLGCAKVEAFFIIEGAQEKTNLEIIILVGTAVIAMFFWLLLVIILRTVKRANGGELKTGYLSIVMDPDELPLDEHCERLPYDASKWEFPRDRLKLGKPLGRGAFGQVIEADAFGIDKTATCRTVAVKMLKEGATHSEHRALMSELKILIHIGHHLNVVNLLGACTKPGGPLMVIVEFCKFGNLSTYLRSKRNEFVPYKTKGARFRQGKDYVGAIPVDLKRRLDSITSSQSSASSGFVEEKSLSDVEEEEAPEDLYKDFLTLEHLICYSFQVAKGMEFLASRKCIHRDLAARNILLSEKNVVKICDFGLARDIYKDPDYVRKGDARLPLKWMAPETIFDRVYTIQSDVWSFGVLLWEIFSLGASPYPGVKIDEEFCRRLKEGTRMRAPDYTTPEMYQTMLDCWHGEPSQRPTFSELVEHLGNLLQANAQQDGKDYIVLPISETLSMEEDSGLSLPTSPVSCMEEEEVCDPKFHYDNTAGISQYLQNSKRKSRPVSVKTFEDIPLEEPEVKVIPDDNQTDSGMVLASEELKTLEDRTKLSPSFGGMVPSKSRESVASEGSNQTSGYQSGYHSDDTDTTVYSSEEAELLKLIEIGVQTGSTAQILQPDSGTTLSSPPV
T1 sequence (P10721 with tags, fused parts or gaps): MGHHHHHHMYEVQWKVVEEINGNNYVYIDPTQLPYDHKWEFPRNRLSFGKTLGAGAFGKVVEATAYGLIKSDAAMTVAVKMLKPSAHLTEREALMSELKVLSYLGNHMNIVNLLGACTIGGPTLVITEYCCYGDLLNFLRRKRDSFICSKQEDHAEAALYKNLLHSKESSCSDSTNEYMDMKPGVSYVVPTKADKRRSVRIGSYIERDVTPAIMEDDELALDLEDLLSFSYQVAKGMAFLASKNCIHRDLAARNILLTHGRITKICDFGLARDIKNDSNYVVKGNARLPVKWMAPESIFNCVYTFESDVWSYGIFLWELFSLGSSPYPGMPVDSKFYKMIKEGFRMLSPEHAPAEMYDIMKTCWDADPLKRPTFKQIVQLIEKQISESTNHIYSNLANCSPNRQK
T6 sequence (P11362 458-765 C488A/C584S): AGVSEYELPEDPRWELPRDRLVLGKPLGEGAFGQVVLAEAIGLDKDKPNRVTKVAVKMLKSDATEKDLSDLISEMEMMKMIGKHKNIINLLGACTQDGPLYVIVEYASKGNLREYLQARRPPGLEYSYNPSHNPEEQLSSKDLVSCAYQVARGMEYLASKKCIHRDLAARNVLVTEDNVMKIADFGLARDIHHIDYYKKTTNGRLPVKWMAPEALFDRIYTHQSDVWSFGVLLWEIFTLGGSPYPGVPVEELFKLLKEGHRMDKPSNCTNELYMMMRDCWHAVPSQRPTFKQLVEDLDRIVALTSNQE

IC50 (Kit) [µM]	IC50 (Kdr) [µM]	IC50 (Ret) [µM]	IC50 (Fms) [µM]	IC50 (Yes) [µM]	IC50 (FGFR1) [µM]	IC50 (B-Raf V600E) [µM]	SMILES
≤ 10	≤ 10	≤ 10	≤ 10	≤ 10	≤ 10	≤ 10	O=C(O)/C=C/c1cccc(-c2cnc3[nH]cc(C(=O)c4ccccc4F)c3c2)c1 [Compound P-0033]
≤ 10	≤ 10	≤ 10		≤ 10		≤ 10	Oc1ccc(F)c(Cc2c[nH]c3ncc(Br)cc23)c1F [Compound P-0122, 3-(5-Bromo-1H-pyrrolo[2,3-b]pyridin-3-ylmethyl)-2,4-difluoro-phenol]
≤ 10	≤ 10	≤ 10	≤ 10	≤ 10	≤ 10		CS(=O)(=O)c1cccc(-c2cnc3[nH]cc(C(O)c4c(F)ccc(F)c4F)c3c2)c1 (stereo not shown) [Compound P-0020]
≤ 10	≤ 10	≤ 10		≤ 10	≤ 10	≤ 10	Cc1ccc(F)cc1C(=O)c1c[nH]c2ncc(-c3cccc(NS(C)(=O)=O)c3)cc12 [Compound P-0028]
≤ 10	≤ 10	≤ 10		≤ 10	≤ 10	≤ 10	Oc1cccc(Cc2c[nH]c3ncc(-c4ccsc4)cc23)c1 [Compound P-0056]
≤ 10	≤ 10	≤ 10		≤ 10	≤ 10	≤ 10	Cc1ccc(F)cc1C(=O)c1c[nH]c2ncc(-c3cccc(N)c3)cc12 [Compound P-0040]
≤ 10	≤ 10	≤ 10		≤ 10	≤ 10	≤ 10	NC(=O)c1ccc(-c2ccnc3[nH]cc(C(=O)c4cc(F)ccc4F)c23)cc1 [Compound P-0013]
≤ 10	≤ 10	≤ 10	≤ 10	≤ 10	≤ 10	≤ 10	O=C(c1cccc(O)c1)c1c[nH]c2ncc(Br)cc12 [Compound P-0019]
≤ 10	≤ 10	≤ 10		≤ 10	≤ 10	≤ 10	O=C(c1cccc(O)c1)c1c[nH]c2ncccc12 [Compound P-0011]
≤ 10	≤ 10	≤ 10	≤ 10	≤ 10	≤ 10	≤ 10	Cc1c(O)cccc1C(=O)c1c[nH]c2ncc(-c3ccccc3)cc12 [Compound P-0016, (3-Hydroxy-2-methyl-phenyl)-(5-phenyl-1H-pyrrolo[2,3b]pyridin-3-yl)-methanone]
	≤ 10	≤ 10	≤ 10	≤ 10		≤ 10	O=C(c1cccc(O)c1)c1c[nH]c2ncc(-c3cccnc3)cc12 [Compound P-0048]
≤ 10	≤ 10	≤ 10	≤ 10	≤ 10	≤ 10	≤ 10	O=C(c1cc(O)ccc1F)c1c[nH]c2ncccc12 [Compound P-0005]

The next lines start with the compound.

SMILES	IC50 (Kit) [µM]	IC50 (Kdr) [µM]	IC50 (Ret) [µM]	IC50 (Fms) [µM]	IC50 (Yes) [µM]	IC50 (FGFR1) [µM]	IC50 (B-Raf V600E) [µM]
O=C(c1ccc(O)cc1)c1c[nH]c2ncc(-c3cccs3)cc12 [Compound P-0024, (4-Hydroxy-phenyl)-(5-thiophen-2-yl-1H-pyrrolo[2,3-b]pyridin-3-yl)-methanone]	≤ 10	≤ 10	≤ 10		≤ 10	≤ 10	≤ 10
Cc1ccccc1C(=O)c1c[nH]c2nccc(-c3ccc(C(N)=O)cc3)c12 [Compound P-0017]	≤ 10	≤ 10	≤ 10		≤ 10	≤ 10	≤ 10
O=C(c1cccc(O)c1F)c1c[nH]c2ncc(-c3cccnc3)cc12 [Compound P-0027, (2-Fluoro-3-hydroxy-phenyl)-(5-pyridin-3-yl-1H-pyrrolo[2,3-b]pyridin-3-yl)-methanone]	≤ 10	≤ 10	≤ 10	≤ 10	≤ 10	≤ 10	≤ 10
CS(=O)(=O)c1cccc(-c2cnc3[nH]cc(C(=O)c4c(F)ccc(F)c4F)c3c2)c1 [Compound P-0102, [5-(3-Methanesulfonyl-phenyl)-1H-pyrrolo[2,3-b]pyridin-3-yl]-(2,3,6-trifluoro-phenyl)-methanone]	≤ 10	≤ 10	≤ 10	≤ 10	≤ 10	≤ 10	≤ 10
O=C(c1cccc(O)c1)c1c[nH]c2nccc(Cl)c12 [Compound P-0012]	≤ 10	≤ 10	≤ 10	≤ 10	≤ 10	≤ 10	≤ 10
COc1ccc(C(=O)c2c[nH]c3ncc(-c4cccc(/C=C/C(=O)O)c4)cc23)c(Cl)c1 [Compound P-0015]		≤ 10	≤ 10		≤ 10	≤ 10	≤ 10
COc1ccc(F)c(C(=O)c2c[nH]c3ncc(-c4cccnc4)cc23)c1 [Compound P-0090]	≤ 10	≤ 10	≤ 10	≤ 10	≤ 10	≤ 10	≤ 10
Cc1c(NS(C)(=O)=O)cccc1C(=O)c1c[nH]c2ncc(-c3ccccc3)cc12 [Compound P-0082, N-[2-Methyl-3-(5-phenyl-1H-pyrrolo[2,3-b]pyridine-3-carbonyl)-phenyl]-methanesulfonamide]	≤ 10	≤ 10	≤ 10	≤ 10	≤ 10	≤ 10	≤ 10
CCCS(=O)(=O)Nc1ccc(F)c(C(=O)c2c[nH]c3ncc(-c4cccnc4)cc23)c1F [Compound P-0088, Propane-1-sulfonic acid [2,4-difluoro-3-(5-pyridin-3-yl-1H-pyrrolo[2,3-b]pyridine-3-carbonyl)-phenyl]-amide]	≤ 10	≤ 10	≤ 10	≤ 10	≤ 10	≤ 10	≤ 10
O=C(c1ccccc1F)c1c[nH]c2ncc(-c3ccsc3)cc12 [Compound P-0134]	≤ 10	≤ 10	≤ 10	≤ 10	≤ 10	≤ 10	≤ 10
Nc1ccnc2[nH]cc(C(=O)c3ccccc3)c12 [Compound P-0029]	≤ 10	≤ 10	≤ 10		≤ 10	≤ 10	
O=C(c1cc(O)ccc1F)c1c[nH]c2ncc(-c3ccccc3)cc12 [Compound P-0045]		≤ 10	≤ 10	≤ 10	≤ 10	≤ 10	≤ 10
OC(c1c(F)ccc(F)c1F)c1c[nH]c2ncc(-c3cccnc3)cc12 (stereo not shown) [Compound P-0101]	≤ 10	≤ 10	≤ 10	≤ 10	≤ 10	≤ 10	
Cc1ccc(F)cc1C(=O)c1c[nH]c2ncc(-c3ccc(C(N)=O)cc3)cc12 [Compound P-0050]	≤ 10	≤ 10	≤ 10		≤ 10	≤ 10	≤ 10
